Test results from patent publication US20250340574A1, “MODULATORS OF CYSTIC FIBROSIS TRANSMEMBRANE CONDUCTANCE REGULATOR” (Vertex Pharmaceuticals Incorporated, priority 2022, published 2025).
Like-named read-outs stand apart in the source and are kept apart here.

How the values were obtained:
[1] = target: T1, CFTR (F508del/MF-HBE cells) (Homo sapiens, UniProt P13569, DEL508-508); test: Ussing chamber assay of CFTR-mediated short-circuit currents, Assay C (0.026 μM to 25 μM, 6 concentrations); assay type: cell-based; details: with 33 nM potentiator and 18 μM Tezacaftor, 20% human serum; for Emax: read-out: C Max activity (%)
T1 construct: human bronchial epithelial (HBE) cells derived from CF subjects heterozygous for F508del and a minimal function CFTR mutation (F508del/MF-HBE); endogenous in cells; host or cells: Primary human bronchial epithelial cells from CF subjects (F508del/MF genotype), differentiated at an air-liquid interface
T1 sequence (P13569 with tags, fused parts or gaps DEL508-508): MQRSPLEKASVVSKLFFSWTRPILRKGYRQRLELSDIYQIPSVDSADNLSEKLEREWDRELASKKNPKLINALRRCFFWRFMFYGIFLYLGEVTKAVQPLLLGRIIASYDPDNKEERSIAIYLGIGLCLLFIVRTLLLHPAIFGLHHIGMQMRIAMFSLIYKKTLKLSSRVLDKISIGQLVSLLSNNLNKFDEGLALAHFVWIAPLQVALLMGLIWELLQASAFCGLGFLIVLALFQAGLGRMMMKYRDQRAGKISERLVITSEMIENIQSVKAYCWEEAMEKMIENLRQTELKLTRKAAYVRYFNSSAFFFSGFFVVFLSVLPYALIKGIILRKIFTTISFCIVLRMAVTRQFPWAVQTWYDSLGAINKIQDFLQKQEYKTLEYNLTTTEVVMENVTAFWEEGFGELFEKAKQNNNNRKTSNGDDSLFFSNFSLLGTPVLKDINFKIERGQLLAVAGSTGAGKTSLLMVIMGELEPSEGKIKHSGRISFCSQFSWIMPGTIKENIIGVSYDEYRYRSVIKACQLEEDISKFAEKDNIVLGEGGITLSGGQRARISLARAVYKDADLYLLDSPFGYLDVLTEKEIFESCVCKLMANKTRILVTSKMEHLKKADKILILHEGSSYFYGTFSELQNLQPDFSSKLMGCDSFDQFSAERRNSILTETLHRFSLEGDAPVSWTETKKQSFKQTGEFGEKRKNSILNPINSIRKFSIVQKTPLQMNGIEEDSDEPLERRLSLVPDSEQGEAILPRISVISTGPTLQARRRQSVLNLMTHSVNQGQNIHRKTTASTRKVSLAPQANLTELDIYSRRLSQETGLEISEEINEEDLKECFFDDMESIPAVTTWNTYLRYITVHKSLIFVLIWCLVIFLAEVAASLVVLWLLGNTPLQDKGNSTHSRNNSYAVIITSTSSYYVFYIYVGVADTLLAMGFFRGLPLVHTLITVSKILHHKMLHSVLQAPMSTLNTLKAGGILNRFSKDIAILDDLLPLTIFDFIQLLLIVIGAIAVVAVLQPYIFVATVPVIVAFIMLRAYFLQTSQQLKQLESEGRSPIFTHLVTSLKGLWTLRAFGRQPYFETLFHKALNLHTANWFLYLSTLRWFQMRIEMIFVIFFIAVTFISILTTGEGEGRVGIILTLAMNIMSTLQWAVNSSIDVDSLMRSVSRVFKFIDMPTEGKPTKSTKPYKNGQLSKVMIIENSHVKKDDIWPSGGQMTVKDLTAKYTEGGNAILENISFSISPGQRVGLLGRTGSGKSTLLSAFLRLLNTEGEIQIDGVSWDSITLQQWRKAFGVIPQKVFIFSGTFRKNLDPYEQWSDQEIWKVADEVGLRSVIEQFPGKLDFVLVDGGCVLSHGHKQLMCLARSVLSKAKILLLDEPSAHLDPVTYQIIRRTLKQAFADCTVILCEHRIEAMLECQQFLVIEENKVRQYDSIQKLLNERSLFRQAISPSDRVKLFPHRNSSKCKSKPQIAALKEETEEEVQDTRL
Summary of the method: (§1)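 F508del/MF-HBE cells grown at air-liquid interface were incubated 18-24 h at 37 °C in 20% human serum with correctors plus 18 μM tezacaftor and a fixed partner compound (33 nM for concentration series, 44 nM at 1 μM). ISC was read at 0 mV after 20 μM forskolin, minus the post-inhibitor current.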

[2] = target: T1, CFTR (F508del/MF-HBE cells); test: Ussing chamber assay of CFTR-mediated short-circuit currents, Assay D (single concentration of 1 μM); assay type: cell-based; details: with 44 nM potentiator and 18 μM Tezacaftor, 20% human serum; for D activity at 1 μM (%): 18-24 hours
Summary of the method: as §1

Row | Emax ([1]; 18-24 hours) [%] | EC50 [1] [nM] | D activity at 1 μM (%) [2] | Emax [1] [%] | D act. at 1 μM (%) [2] | SMILES
1 | – | 1000 to 3000 | – | > 60 | +++ (+++ is >60%) | Cc1cccc(CC(C)C)c1-c1nc2nc(c1C)OC[C@@H](CC1(C)CC1)N(Cc1cnc3cc(C(C)(C)C)n(C)c3n1)C(=O)c1cccc(c1)S(=O)(=O)N2 (atropisomer, axis not shown) [IV-44]
2 | – | 1000 to 3000 | – | > 60 | +++ (+++ is >60%) | Cc1cccc(C)c1-c1cc2nc(n1)NS(=O)(=O)c1cccc(c1)C(=O)N(Cc1cnc3oc(C(C)(C)C)cc3n1)[C@H](CC1(C)CCC1)CO2 [IV-5]
3 | – | < 1000 | – | > 60 | +++ (+++ is >60%) | COc1c2nc(nc1-c1c(C)cccc1C)NS(=O)(=O)c1cccc(c1)C(=O)N(Cc1cnc3cc(C4(C)CC4)n(C)c3n1)[C@H](COC(C)C)CO2 [IV-11]
4 | – | 1000 to 3000 | – | > 60 | +++ (+++ is >60%) | Cc1cccc(C)c1-c1cc2nc(n1)NS(=O)(=O)c1cccc(c1)C(=O)N(Cc1cnc3oc(COC(C)C)cc3n1)[C@H](CC1(C)CC1)CO2 [IV-18]
5 | – | 1000 to 3000 | – | > 60 | +++ (+++ is >60%) | Cc1cccc(C)c1-c1cc2nc(n1)NS(=O)(=O)c1cccc(c1)C(=O)N(Cc1ncc3cc(C(C)(C)C)n(C)c3n1)[C@H](CC(C)(C)C)CO2 [IV-38]
6 | – | 3000 to 30000 | – | > 60 | +++ (+++ is >60%) | Cc1cccc(C)c1-c1cc2nc(n1)NS(=O)(=O)c1cccc(c1)C(=O)N(Cc1cnc3oc(C(C)(C)C)cc3n1)[C@@H](C(C1CCC1)C1CCC1)CO2 [IV-33]
7 | – | < 1000 | – | > 60 | +++ (+++ is >60%) | Cc1cccc(C)c1-c1nc2nc(c1C)OC[C@@H](COC(C)C)N(Cc1cnc3cc(C4(C)CC4)n(C)c3n1)C(=O)c1cccc(c1)S(=O)(=O)N2 [IV-2]
8 | – | < 1000 | – | > 60 | +++ (+++ is >60%) | Cc1cccc(CC(C)C)c1-c1nc2nc(c1C)OC[C@@H](CC1(C)CC1)N(Cc1cnc3oc(C(C)C)cc3n1)C(=O)c1cccc(c1)S(=O)(=O)N2 (atropisomer, axis not shown) [IV-46]
9 | – | 1000 to 3000 | – | > 60 | +++ (+++ is >60%) | Cc1cccc(CC(C)C)c1-c1nc2nc(c1C)OC[C@@H](CC(C)(C)C)N(Cc1ncc3cc(C(C)(C)C)n(C)c3n1)C(=O)c1cccc(c1)S(=O)(=O)N2 (atropisomer, axis not shown) [IV-47]
10 | – | < 1000 | – | > 60 | +++ (+++ is >60%) | Cc1cccc(C)c1-c1cc2nc(n1)NS(=O)(=O)c1cccc(c1)C(=O)N(Cc1cnc3oc(C4(C)CC4)cc3n1)[C@@H](C(C(C)C)C(C)C)CO2 (stereo in doubt) [IV-31]
11 | – | 1000 to 3000 | – | > 60 | +++ (+++ is >60%) | CCC(C)(C)C[C@H]1COc2cc(-c3c(C)cccc3C)nc(n2)NS(=O)(=O)c2cccc(c2)C(=O)N1Cc1cnc2oc(C(C)(C)C)cc2n1 [IV-37]
12 | – | 3000 to 30000 | – | > 60 | +++ (+++ is >60%) | Cc1cccc(C)c1-c1cc2nc(n1)NS(=O)(=O)c1cccc(c1)C(=O)N(Cc1cnc3oc(CC(C)C)cc3n1)[C@H](CC1(C)CC1)CO2 [IV-24, (11R)-6-(2,6-dimethylphenyl)-12-[(6-isobutylfuro[2,3-b]pyrazin-2-yl)methyl]-11-[(1-methylcyclopropyl)methyl]-2,2-dioxo-9-oxa-2λ^6-thia-3,5,12,19-tetrazatricyclo[12.3.1.14,8]nonadeca-1(18),4(19),5,7,14,16-hexaen-13-one]
13 | – | 1000 to 3000 | – | > 60 | +++ (+++ is >60%) | COc1c2nc(nc1-c1c(C)cccc1C)NS(=O)(=O)c1cccc(c1)C(=O)N(Cc1cnc3oc(C(C)(C)C)cc3n1)[C@H](CC1(C)CC1)CO2 [IV-12]
14 | – | 1000 to 3000 | – | > 60 | +++ (+++ is >60%) | Cc1cccc(COC(C)C)c1-c1nc2nc(c1C)OC[C@@H](CC(C)(C)C)N(Cc1cnc3oc(C4CC4)cc3n1)C(=O)c1cccc(c1)S(=O)(=O)N2 [IV-39]
15 | – | 1000 to 3000 | – | > 60 | +++ (+++ is >60%) | Cc1cccc(CC(C)C)c1-c1nc2nc(c1C)OC[C@@H](CC1(C)CC1)N(Cc1cnc3oc(C(C)(C)C)cc3n1)C(=O)c1cccc(c1)S(=O)(=O)N2 (atropisomer, axis not shown) [IV-45]
16 | – | 1000 to 3000 | – | > 60 | +++ (+++ is >60%) | CCC(C)(C)C[C@H]1COc2cc(-c3c(C)cccc3C)nc(n2)NS(=O)(=O)c2cccc(c2)C(=O)N1Cc1cnc2oc(C3CC3)cc2n1 [IV-34]

Second part, the compound before the results:

Row | SMILES | Emax ([1]; 18-24 hours) [%] | EC50 [1] [nM] | D activity at 1 μM (%) [2] | Emax [1] [%] | D act. at 1 μM (%) [2]
17 | Cc1cccc(C)c1-c1cc2nc(n1)NS(=O)(=O)c1cccc(c1)C(=O)N(Cc1cnc3cc(C4CC4)n(C)c3n1)[C@@H](CCC1(C)CC1)CO2 (stereo in doubt) [Compound I-207] | > 60 | < 1000 | +++ (+++ is >60%) | – | –
18 | Cc1cccc(C)c1-c1nc2nc(c1C)OC[C@@H](CC13CC(C1)C3)N(Cc1cnc3cc(C4(C)CC4)n(C)c3n1)C(=O)c1cccc(c1)S(=O)(=O)N2 [Compound I-228] | > 60 | < 1000 | +++ (+++ is >60%) | – | –
19 | Cc1cccc(CC(C)C)c1-c1nc2nc(c1C)OC[C@@H](COC(C)C)N(Cc1cnc3cc(C(C)C)n(C)c3n1)C(=O)c1cccc(c1)S(=O)(=O)N2 (atropisomer, axis not shown) [Compound I-211] | > 60 | < 1000 | +++ (+++ is >60%) | – | –
20 | Cc1cccc(C2CC2)c1-c1nc2nc(c1C)OC[C@@H](CC(C)(C)C)N(Cc1cnc3oc(C4CC4)cc3n1)C(=O)c1cccc(c1)S(=O)(=O)N2 (atropisomer, axis not shown) [Compound I-152] | > 60 | < 1000 | +++ (+++ is >60%) | – | –
21 | Cc1cccc(C)c1-c1nc2nc(c1C)OC[C@@H](CC(C)(C)C)N(Cc1ncc3cc(C4CC4)n(C)c3n1)C(=O)c1cccc(c1)S(=O)(=O)N2 [Compound I-265] | > 60 | 1000 to 3000 | +++ (+++ is >60%) | – | –
22 | Cc1cccc(C)c1-c1cc2nc(n1)NS(=O)(=O)c1cccc(c1)C(=O)N(Cc1cnc3oc(C(C)(C)C)cc3n1)[C@H](CC(C)(C)C)CO2 [Compound I-218] | > 60 | < 1000 | +++ (+++ is >60%) | – | –
23 | Cc1cccc(CC(C)C)c1-c1nc2nc(c1C)OC[C@@H](CC(C)(C)C)N(Cc1cnc3nc(C(C)C)n(C)c3n1)C(=O)c1cccc(c1)S(=O)(=O)N2 (atropisomer, axis not shown) [Compound I-171] | > 60 | < 1000 | +++ (+++ is >60%) | – | –
24 | Cc1cccc(CC(C)C)c1-c1nc2nc(c1C)OC[C@@H](CC(C)(C)C)N(Cc1cnc3nc(C4CC4)n(C)c3n1)C(=O)c1cccc(c1)S(=O)(=O)N2 (atropisomer, axis not shown) [Compound I-170] | > 60 | < 1000 | +++ (+++ is >60%) | – | –
25 | Cc1cccc(C)c1-c1cc2nc(n1)NS(=O)(=O)c1cccc(c1)C(=O)N(Cc1ncc3cc(C4CC4)n(C)c3n1)[C@H](CC1(C)CC1)CO2 [Compound I-263] | > 60 | 1000 to 3000 | +++ (+++ is >60%) | – | –
26 | Cc1cccc(C)c1-c1cc2nc(n1)NS(=O)(=O)c1cccc(c1)C(=O)N(Cc1ncc3cc(C4CC4)n(C)c3n1)[C@H](CC13CC(C1)C3)CO2 [Compound I-264] | > 60 | 1000 to 3000 | +++ (+++ is >60%) | – | –
27 | Cc1cccc(C)c1-c1cc2nc(n1)NS(=O)(=O)c1cccc(c1)C(=O)N(Cc1cnc3oc(C(C)(C)CO)cc3n1)[C@H](CC13CC(C1)C3)CO2 [Compound I-113, (11R)-11-(1-bicyclo[1.1.1]pentanylmethyl)-6-(2,6-dimethylphenyl)-12-[[6-(2-hydroxy-1,1-dimethyl-ethyl)furo[2,3-b]pyrazin-2-yl]methyl]-2,2-dioxo-9-oxa-2λ^6-thia-3,5,12,19-tetrazatricyclo[12.3.1.14,8]nonadeca-1(18),4(19),5,7,14,16-hexaen-13-one] | > 60 | 3000 to 30000 | +++ (+++ is >60%) | – | –
28 | Cc1cccc(C(C)C)c1-c1nc2nc(c1C)OC[C@@H](CC(C)(C)C)N(Cc1cnc3oc(C4(C)CC4)cc3n1)C(=O)c1cccc(c1)S(=O)(=O)N2 (atropisomer, axis not shown) [Compound I-213] | > 60 | < 1000 | +++ (+++ is >60%) | – | –
29 | Cc1cccc(CCC(C)C)c1-c1nc2nc(c1C)OC[C@@H](CC(C)(C)C)N(Cc1cnc3oc(C4CC4)cc3n1)C(=O)c1cccc(c1)S(=O)(=O)N2 (atropisomer, axis not shown) [Compound I-204] | > 60 | < 1000 | +++ (+++ is >60%) | – | –
